Reference: patent US20150274719A1, “AMINO-SUBSTITUTED IMIDAZO[1,2-A]PYRIDINECARBOXAMIDES AND THEIR USE” (BAYER PHARMA AKTIENGESELLSCHAFT, priority 2012, published 2015)
Counter-ions that a name gives are not always drawn.

These compounds were tested against T1, recombinant guanylate cyclase reporter cell line (Rattus norvegicus, UniProt P19686+P20595) (assay: Action on recombinant guanylate cyclase reporter cell line). Settings: in some cases mean values from individual determinations.
T1 construct: expressed in transfected cells; host or cells: recombinant reporter cell line
T1 sequence (P19686 1-690): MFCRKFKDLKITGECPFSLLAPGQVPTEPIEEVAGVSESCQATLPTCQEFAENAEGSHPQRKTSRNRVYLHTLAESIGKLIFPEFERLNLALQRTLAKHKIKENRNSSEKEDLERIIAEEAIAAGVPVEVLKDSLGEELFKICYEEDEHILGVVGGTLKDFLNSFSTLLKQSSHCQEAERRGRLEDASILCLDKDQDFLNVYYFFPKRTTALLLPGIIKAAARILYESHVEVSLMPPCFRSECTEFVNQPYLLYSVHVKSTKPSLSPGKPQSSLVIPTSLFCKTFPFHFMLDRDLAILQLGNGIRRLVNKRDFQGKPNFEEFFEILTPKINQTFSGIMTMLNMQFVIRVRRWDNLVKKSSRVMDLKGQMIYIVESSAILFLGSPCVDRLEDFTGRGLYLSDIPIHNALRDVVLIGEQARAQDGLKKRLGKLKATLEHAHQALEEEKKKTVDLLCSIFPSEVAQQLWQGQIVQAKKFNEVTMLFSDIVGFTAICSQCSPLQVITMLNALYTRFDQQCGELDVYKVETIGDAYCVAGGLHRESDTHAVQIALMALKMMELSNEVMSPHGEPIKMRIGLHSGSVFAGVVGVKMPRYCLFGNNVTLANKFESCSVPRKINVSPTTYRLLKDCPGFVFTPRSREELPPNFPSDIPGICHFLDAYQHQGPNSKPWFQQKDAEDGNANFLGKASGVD
T1 sequence (P20595 1-619): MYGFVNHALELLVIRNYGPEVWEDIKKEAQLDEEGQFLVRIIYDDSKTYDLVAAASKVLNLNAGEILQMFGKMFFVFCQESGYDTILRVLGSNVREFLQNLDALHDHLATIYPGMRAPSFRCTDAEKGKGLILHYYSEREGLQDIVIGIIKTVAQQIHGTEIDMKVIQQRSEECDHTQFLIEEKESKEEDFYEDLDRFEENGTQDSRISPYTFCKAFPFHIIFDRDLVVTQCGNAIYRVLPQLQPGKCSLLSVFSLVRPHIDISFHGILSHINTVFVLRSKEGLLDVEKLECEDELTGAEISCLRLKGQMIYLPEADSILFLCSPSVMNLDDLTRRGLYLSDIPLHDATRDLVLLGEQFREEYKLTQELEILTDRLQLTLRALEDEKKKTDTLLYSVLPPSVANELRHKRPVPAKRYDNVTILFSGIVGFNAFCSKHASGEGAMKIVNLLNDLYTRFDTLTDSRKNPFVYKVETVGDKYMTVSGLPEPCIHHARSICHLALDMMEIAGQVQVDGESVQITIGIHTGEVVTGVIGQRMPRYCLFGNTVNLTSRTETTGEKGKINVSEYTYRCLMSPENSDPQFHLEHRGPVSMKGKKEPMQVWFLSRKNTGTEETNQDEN
Assay type: cell-based
Summary of the method: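 Rat recombinant guanylate cyclase reporter cell line measures cellular activity. Value reported as MEC (minimal effective concentration), sometimes averaged over individual determinations.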
`Cc1nc2c(OCc3c(F)cccc3F)cccn2c1C(=O)NCC(C)(N)CC(C)C` (single isomer, unassigned) [Example 204, ent-N-(2-Amino-2,4-dimethylpentyl)-8-[(2,6-difluorobenzyl)oxy]-2-methylimidazo[1,2-a]pyridine-3-carboxamide] was tested, and the “MEC (minimal effective concentration)” value was 1.00 µM.
With `Cc1nc2c(OCc3c(F)cccc3F)cc(Cl)cn2c1C(=O)NCC(C)N` (racemic) [Example 23, rac-N-(2-aminopropyl)-6-chloro-8-[(2,6-difluorobenzyl)oxy]-2-methylimidazo[1,2-a]-pyridine-3-carboxamide] the “MEC (minimal effective concentration)” value was 0.30 µM.
In the case of `CCC(C)(N)CNC(=O)c1c(C)nc2c(OCc3c(F)cccc3F)cc(C)cn12.Cl` (single isomer, unassigned; enantiomer a) [Example 357, ent-N-(2-amino-2-methylbutyl)-8-[(2,6-difluorobenzyl)oxy]-2,6-dimethylimidazo[1,2-a]pyridine-3-carboxamide hydrochloride (Enantiomer A)], the “MEC (minimal effective concentration)” value is reported as 0.03 µM.
`Cc1cc(OCc2c(F)cccc2F)c2nc(C)c(C(=O)NC34CC5CC(CC(N)(C5)C3)C4)n2c1` [Example 365, N-(3-aminoadamantan-1-yl)-8-[(2,6-difluorobenzyl)oxy]-2,6-dimethylimidazo[1,2-a]pyridine-3-carboxamide Formate] was tested, and the “MEC (minimal effective concentration)” value was 1.00 µM.
`Cc1nc2c(OCc3c(F)cccc3F)cccn2c1C(=O)NCC(N)C(F)(F)C(F)F` (racemic) [Example 230, rac-N-(2-Amino-3,3,4,4-tetrafluorobutyl)-8-[(2,6-difluorobenzyl)oxy]-2-methylimidazo[1,2-a]-pyridine-3-carboxamide] was tested, and the “MEC (minimal effective concentration)” value was 1.00 µM.
`CCCC(C)(N)CNC(=O)c1c(C)nc2c(OCc3ccccc3)cc(C)cn12` (racemic) [Example 340, rac-N-(2-amino-2-methylpentyl)-8-(benzyloxy)-2,6-dimethylimidazo[1,2-a]pyridine-3-carboxamide] was tested, and the “MEC (minimal effective concentration)” value was 1.00 µM.
`Cc1nc2c(OCc3c(F)cccc3F)cccn2c1C(=O)NCC1CCc2ccccc2N1` (racemic) [Example 250, rac-8-[(2,6-Difluorobenzyl)oxy]-2-methyl-N-(1,2,3,4-tetrahydroquinolin-2-ylmethyl)imidazo[1,2-a]pyridine-3-carboxamide] was tested, and the “MEC (minimal effective concentration)” value was 1.00 µM.
`CCCC(C)(N)CNC(=O)c1c(C)nc2c(OCc3c(F)cccc3F)c(F)ccn12` (racemic) [Example 277, rac-N-(2-Amino-2-methylpentyl)-8-[(2,6-difluorobenzyl)oxy]-7-fluoro-2-methylimidazo[1,2-a]-pyridine-3-carboxamide] was tested, and the “MEC (minimal effective concentration)” value was 1.00 µM.
In the case of `Cc1nc2c(OCc3c(F)cccc3F)cccn2c1C(=O)NC(CN)c1ccc(F)c(F)c1` (racemic) [Example 11, rac-N-[2-Amino-1-(3,4-difluorophenyl)ethyl]-8-[(2,6-difluorobenzyl)oxy]-2-methylimidazo[1,2-a]pyridine-3-carboxamide], the “MEC (minimal effective concentration)” value is reported as 0.30 µM.
`CCCC(C)(N)CNC(=O)c1c(C)nc2c(OCc3c(F)cccc3F)cc(Cl)cn12` (single isomer, unassigned; enantiomer b) [Example 246, ent-N-(2-Amino-2-methylpentyl)-6-chloro-8-[(2,6-difluorobenzyl)oxy]-2-methylimidazo[1,2-a]-pyridine-3-carboxamide (Enantiomer B)] was tested, and the “MEC (minimal effective concentration)” value was 0.30 µM.
`CCCC(C)(N)CNC(=O)c1c(C)nc2c(OCc3ccccc3Br)cc(C)cn12` (stereo not drawn) [Example 353, N-(2-amino-2-methylpentyl)-8-[(2-bromobenzyl)oxy]-2,6-dimethylimidazo[1,2-a]pyridine-3-carboxamide] was tested, and the “MEC (minimal effective concentration)” value was 3.00 µM.
In the case of `CCCC(C)(N)CNC(=O)c1c(C)nc2c(OCc3c(F)cccc3OC)cc(C)cn12` (racemic) [Example 351, rac-N-(2-amino-2-methylpentyl)-8-[(2-fluoro-6-methoxybenzyl)oxy]-2,6-dimethylimidazo[1,2-a]pyridine-3-carboxamide], the “MEC (minimal effective concentration)” value is reported as 3.00 µM.
With `Cc1nc2c(OCc3c(F)cccc3F)cccn2c1C(=O)NCC(C)(N)COCc1ccccc1` (racemic) [Example 263, rac-N-[2-amino-3-(benzyloxy)-2-methylpropyl]-8-[(2,6-difluorobenzyl)oxy]-2-methylimidazo[1,2-a]pyridine-3-carboxamide] the “MEC (minimal effective concentration)” value was 1.00 µM.
With `CCC(C)(N)CNC(=O)c1c(C)nc2c(OCc3c(F)ccc(OC)c3F)cc(C)cn12` (stereo not drawn) [Example 360, ent-N-(2-amino-2-methylbutyl)-8-[(2,6-difluoro-3-methoxybenzyl)oxy]-2,6-dimethylimidazo[1,2-a]pyridine-3-carboxamide] the “MEC (minimal effective concentration)” value was 1.00 µM.
For `Cc1nc2c(OCc3c(F)cccc3F)cc(F)cn2c1C(=O)NCC(C)(C)N` [Example 140, N-(2-Amino-2-methylpropyl)-8-[(2,6-difluorobenzyl)oxy]-6-fluoro-2-methylimidazo[1,2-a]-pyridine-3-carboxamide], the “MEC (minimal effective concentration)” value was 1.00 µM.
In the case of `CCCC(C)(N)CNC(=O)c1c(C)nc2c(OCc3c(F)cccc3F)cc(C)cn12` (single isomer, unassigned) [Example 233, ent-N-(2-Amino-2-methylpentyl)-8-[(2,6-difluorobenzyl)oxy]-2,6-dimethylimidazo[1,2-a]pyridine-3-carboxamide], the “MEC (minimal effective concentration)” value is reported as 0.10 µM.
`Cc1cc(OCc2c(F)cccc2F)c2nc(C)c(C(=O)NC(CN)c3ccc([N+](=O)[O-])cc3)n2c1` (racemic) [Example 384, rac-N-[2-amino-1-(4-nitrophenyl)ethyl]-8-[(2,6-difluorobenzyl)oxy]-2,6-dimethylimidazo[1,2-a]pyridine-3-carboxamide] was tested, and the “MEC (minimal effective concentration)” value was 0.30 µM.
For `Cc1nc2c(OCc3c(F)cccc3F)cc(Cl)cn2c1C(=O)NCC(C)N` (single isomer, unassigned) [Example 30, ent-N-(2-Aminopropyl)-6-chloro-8-[(2,6-difluorobenzyl)oxy]-2-methylimidazo[1,2-a]pyridine-3-carboxamide], the “MEC (minimal effective concentration)” value was 0.30 µM.
In the case of `Cc1nc2c(OCc3c(F)cccc3F)cccn2c1C(=O)NCCN1CCN(C2CC2)CC1` [Example 168, N-[2-(4-Cyclopropylpiperazin-1-yl)ethyl]-8-[(2,6-difluorobenzyl)oxy]-2-methylimidazo[1,2-a]-pyridine-3-carboxamide], the “MEC (minimal effective concentration)” value is reported as 1.00 µM.
For `COc1cccc(F)c1COc1cc(C)cn2c(C(=O)NCC(C)(C)N)c(C)nc12` [Example 352, N-(2-amino-2-methylpropyl)-8-[(2-fluoro-6-methoxybenzyl)oxy]-2,6-dimethylimidazo[1,2-a]pyridine-3-carboxamide], the “MEC (minimal effective concentration)” value was 3.00 µM.
In the case of `COCC(CN)NC(=O)c1c(C)nc2c(OCc3c(F)cccc3F)cccn12` (single isomer, unassigned) [Example 123, ent-N-(1-Amino-3-methoxypropan-2-yl)-8-[(2,6-difluorobenzyl)oxy]-2-methylimidazo[1,2-a]-pyridine-3-carboxamide ditrifluoroacetate], the “MEC (minimal effective concentration)” value is reported as 3.00 µM.
In the case of `COc1ccc(CC(C)(CN)NC(=O)c2c(C)nc3c(OCc4c(F)cccc4F)cc(C)cn23)cc1` (racemic) [Example 386, rac-N-[1-amino-3-(4-methoxyphenyl)-2-methylpropan-2-yl]-8-[(2,6-difluorobenzyl)oxy]-2,6-dimethylimidazo[1,2-a]pyridine-3-carboxamide], the “MEC (minimal effective concentration)” value is reported as 0.65 µM.
In the case of `Cc1nc2c(OCc3c(F)cccc3F)cccn2c1C(=O)NCCN(C)C` [Example 86, 8-[(2,6-difluorobenzyl)oxy]-N-[2-(dimethyl-amino)ethyl]-2-methylimidazo[1,2-a]pyridine-3-carboxamide], the “MEC (minimal effective concentration)” value is reported as 2.00 µM.
For `Cc1nc2c(OCc3c(F)cccc3F)cccn2c1C(=O)NCCN1CCOCC1` [Example 89, 8-[(2,6-difluorobenzyl)oxy]-2-methyl-N-[2-(morpholin-4-yl)ethyl]imidazo[1,2-a]pyridine-3-carboxamide], the “MEC (minimal effective concentration)” value was 0.65 µM.
